The text below walks through data of ChEMBL document CHEMBL1201862, “PubChem BioAssay data set” (2004).

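Five concentrations, 48 hours, 96-well plates. GI50 marks 50% less growth.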 Active and inactive are the calls of the source. Rule as the data show it: active = GI50 up to about 1.1 µM and inactive = higher. Some results are limits rather than exact numbers.

Among the test systems are COLO 205; TK-10; UO-31; CCRF-CEM; A498; SNB-19; NCI-H226; SF-539; MOLT-4; SK-MEL-28; U-251; OVCAR-3; HOP-92; T47D; MDA-MB-231; IGROV-1; UACC-257; A549; OVCAR-4; OVCAR-5.
Common to all, as to assay: NCI tumour cell line growth inhibition, 48 h

Regarding `Cn1c(=O)c2c(nc3n(CCCCl)c(=O)ccn23)n(C)c1=O`, the GI50 in the experiment with COLO 205, in the experiment with TK-10, with UO-31, in the experiment with CCRF-CEM, in the experiment on A498 and in the experiment on SNB-19 was > 100 µM (inactive) each time. Moreover, the GI50 with NCI-H226, with SF-539, with MOLT-4, in the experiment on SK-MEL-28, in the experiment on U-251 and in the experiment on OVCAR-3 was > 100 µM (inactive) throughout. In addition, the GI50 in the experiment on HOP-92, with T47D, in the experiment on MDA-MB-231, in the experiment on IGROV-1, with UACC-257 and in the experiment on A549 was > 100 µM (inactive) throughout. In addition, the GI50 in the experiment on OVCAR-4 and in the experiment on OVCAR-5 was > 100 µM (inactive) throughout.

On to `Cc1oc2nc(N(C)C)nc(NN)c2c1C`, for which the GI50 was > 100 µM (inactive) in the experiment on COLO 205; > 100 µM (inactive) in the experiment on TK-10; 61.7 µM (inactive) with UO-31; > 100 µM (inactive) with CCRF-CEM; > 100 µM (inactive) with A498; > 100 µM (inactive) in the experiment on SNB-19. For the same compound, the GI50 with NCI-H226, in the experiment with SF-539, in the experiment on MOLT-4, in the experiment on SK-MEL-28, in the experiment on U-251 and with OVCAR-3 was > 100 µM (inactive) each time. Moreover, the GI50 with HOP-92, with T47D, with MDA-MB-231, in the experiment with IGROV-1, in the experiment on UACC-257 and with A549 was > 100 µM (inactive) in each case. Further, the GI50 with OVCAR-4 and in the experiment on OVCAR-5 was > 100 µM (inactive) throughout.

As for `O=C1NC2c3c(I)sc(I)c3/C(=N\O)C2O1` (stereo not given), the GI50 with COLO 205 is 20.8 µM (inactive); in the experiment on TK-10, 48.5 µM (inactive); with UO-31 it was 15.7 µM (inactive); with CCRF-CEM, 24.3 µM (inactive); in the experiment with A498, 33.6 µM (inactive); in the experiment with SNB-19, 21.7 µM (inactive). Also, the GI50 is 31 µM (inactive) in the experiment with NCI-H226; 14.2 µM (inactive) in the experiment on SF-539; 28.2 µM (inactive) with MOLT-4; 41.8 µM (inactive) in the experiment on SK-MEL-28; 23.1 µM (inactive) with U-251; 18.2 µM (inactive) in the experiment on OVCAR-3. Besides, the GI50 is 19.2 µM (inactive) in the experiment on HOP-92; 35.2 µM (inactive) with T47D; 24 µM (inactive) in the experiment with MDA-MB-231; 19.8 µM (inactive) with IGROV-1; 58.3 µM (inactive) in the experiment with UACC-257; 48.9 µM (inactive) in the experiment on A549. For the same compound, the GI50 with OVCAR-4 is 26.1 µM (inactive); with OVCAR-5, 30.5 µM (inactive).

For the compound `O=C1OC(c2ccccc2)=NC1c1ccccc1` (stereo not given), the GI50 in the experiment with COLO 205, with TK-10, in the experiment on UO-31, in the experiment on CCRF-CEM, in the experiment on A498 and with SNB-19 was > 100 µM (inactive) throughout. Further, the GI50 in the experiment with NCI-H226, with SF-539, in the experiment on MOLT-4, in the experiment with SK-MEL-28, with U-251 and with OVCAR-3 was > 100 µM (inactive) throughout. For the same compound, the GI50 in the experiment on HOP-92, with T47D, in the experiment on MDA-MB-231, with IGROV-1, with UACC-257 and with A549 was > 100 µM (inactive) each time. The GI50 with OVCAR-4 and with OVCAR-5 was > 100 µM (inactive) each time.

Turning to `COc1ccc2c(CC(=O)O)cc(=O)oc2c1`, the GI50 with COLO 205, in the experiment on TK-10, in the experiment with UO-31, in the experiment with CCRF-CEM, in the experiment with A498 and in the experiment on SNB-19 was > 100 µM (inactive) in each case. The GI50 with NCI-H226, in the experiment with SF-539, in the experiment with MOLT-4, with SK-MEL-28, in the experiment with U-251 and in the experiment on OVCAR-3 was > 100 µM (inactive) each time. Moreover, the GI50 was 86.1 µM (inactive) in the experiment on HOP-92; > 100 µM (inactive) in the experiment with T47D; > 100 µM (inactive) in the experiment on MDA-MB-231; > 100 µM (inactive) in the experiment on IGROV-1; > 100 µM (inactive) in the experiment with UACC-257; > 100 µM (inactive) in the experiment with A549. Further, the GI50 in the experiment with OVCAR-4 and with OVCAR-5 was > 100 µM (inactive) in each case.

Consider `CC(C)OP(=O)(OC(C)C)C(Nc1cccc(C(F)(F)F)c1)c1ccccc1` (stereo not given), for which the GI50 with COLO 205 was 25.5 µM (inactive); in the experiment on TK-10, > 100 µM (inactive); in the experiment on UO-31, 17.9 µM (inactive); with CCRF-CEM, 31 µM (inactive); with A498, > 100 µM (inactive); in the experiment on SNB-19 it was 71.6 µM (inactive). Moreover, the GI50 in the experiment on NCI-H226 was 60 µM (inactive); with SF-539 it was > 100 µM (inactive); in the experiment on MOLT-4, 13.7 µM (inactive); with SK-MEL-28, 93.5 µM (inactive); in the experiment on U-251, 58.5 µM (inactive); in the experiment with OVCAR-3, 35.6 µM (inactive). Also, the GI50 in the experiment with HOP-92 is 17.1 µM (inactive); in the experiment with T47D, 35.7 µM (inactive); in the experiment on MDA-MB-231, 45.9 µM (inactive); in the experiment on IGROV-1, 79.4 µM (inactive); in the experiment with UACC-257, 39.1 µM (inactive); in the experiment with A549 it was 30.5 µM (inactive). Moreover, the GI50 with OVCAR-4 was 54.8 µM (inactive); in the experiment with OVCAR-5, > 100 µM (inactive).

Regarding `COc1ccc2c(c1)[nH]c1c(/C=C/c3ccccc3)nccc12`, the GI50 in the experiment on COLO 205 is 3.83 µM (inactive); with TK-10 it was 19.4 µM (inactive); in the experiment on UO-31, 10.4 µM (inactive); in the experiment on CCRF-CEM it was 17 µM (inactive); in the experiment on A498 it was 12.3 µM (inactive); with SNB-19, 16 µM (inactive). Moreover, the GI50 in the experiment with NCI-H226 was 17.4 µM (inactive); in the experiment with SF-539, 13 µM (inactive); in the experiment on MOLT-4 it was 7.55 µM (inactive); in the experiment on SK-MEL-28, 14.9 µM (inactive); in the experiment with U-251, 14.1 µM (inactive); in the experiment on OVCAR-3, 13.6 µM (inactive). Also, the GI50 in the experiment on HOP-92 was 18.6 µM (inactive); with T47D it was 23.5 µM (inactive); in the experiment on MDA-MB-231 it was 17.5 µM (inactive); in the experiment on IGROV-1 it was 14.7 µM (inactive); in the experiment on UACC-257 it was 16.1 µM (inactive); in the experiment with A549, 14.9 µM (inactive). In addition, the GI50 with OVCAR-4 is 19.6 µM (inactive); in the experiment on OVCAR-5 it was 14.9 µM (inactive).

On to `O=C1C(Cl)=C(N2CCOCC2)C(=O)c2c(O)ccc(O)c21`, for which the GI50 in the experiment on COLO 205 is 0.19 µM (active); in the experiment with TK-10, 0.638 µM (active); in the experiment with UO-31 it was 0.351 µM (active); in the experiment with CCRF-CEM, 0.473 µM (active); with A498, 1.63 µM (inactive); in the experiment on SNB-19, 1.78 µM (inactive). The GI50 in the experiment with NCI-H226 is 1.83 µM (inactive); in the experiment with SF-539 it was 0.486 µM (active); with MOLT-4 it was 1.35 µM (inactive); in the experiment on SK-MEL-28, 0.288 µM (active); in the experiment with U-251, 0.925 µM (active); with OVCAR-3, 0.385 µM (active). The GI50 in the experiment with HOP-92 is 0.291 µM (active); in the experiment on T47D it was 0.839 µM (active); with MDA-MB-231 it was 0.216 µM (active); in the experiment with IGROV-1 it was 0.612 µM (active); in the experiment on UACC-257, 0.33 µM (active); in the experiment on A549, 1.98 µM (inactive). The figures for the GI50 in the experiment with OVCAR-4 and with OVCAR-5 were 0.256 µM (active) and 0.497 µM (active), respectively.

For the compound `CN1c2ccccc2C2c3c(O)ccc(O)c3C=C([N+](=O)[O-])C21` (stereo not given), the GI50 in the experiment with COLO 205 is 0.653 µM (active); with TK-10 it was 11.2 µM (inactive); in the experiment with UO-31, 0.521 µM (active); in the experiment with CCRF-CEM, 1.04 µM (active); in the experiment on A498, 1.79 µM (inactive); with SNB-19, 0.619 µM (active). The GI50 was 16.2 µM (inactive) with NCI-H226; 1.44 µM (inactive) in the experiment on SF-539; 0.424 µM (active) with MOLT-4; 2.03 µM (inactive) with SK-MEL-28; 0.65 µM (active) in the experiment on U-251; 0.0329 µM (active) with OVCAR-3. The GI50 in the experiment on HOP-92 was 2.28 µM (inactive); in the experiment with T47D it was 0.324 µM (active); in the experiment with MDA-MB-231, 0.656 µM (active); in the experiment on IGROV-1 it was 0.492 µM (active); with UACC-257, 0.19 µM (active); in the experiment on A549, 1.56 µM (inactive). Further, the figures for the GI50 with OVCAR-4 and in the experiment on OVCAR-5 were 1.21 µM (inactive) and 1.83 µM (inactive), respectively.

For `Cc1ccc(-n2cc(-c3ccc(Cl)cc3)c3c(N/N=C4\SCC(=O)N4C)ncnc32)cc1`, the GI50 was 4.09 µM (inactive) in the experiment with COLO 205; 2.64 µM (inactive) with TK-10; 46.3 µM (inactive) in the experiment on UO-31; > 100 µM (inactive) in the experiment on CCRF-CEM; 11.5 µM (inactive) in the experiment with A498; 9.59 µM (inactive) with SNB-19. Besides, the GI50 with NCI-H226 is 7.35 µM (inactive); in the experiment with SF-539, 12 µM (inactive); with MOLT-4, 38.9 µM (inactive); in the experiment with SK-MEL-28, 2.44 µM (inactive); in the experiment with U-251 it was 6.71 µM (inactive); in the experiment on OVCAR-3 it was 10.8 µM (inactive). Also, the GI50 in the experiment with HOP-92 was 2.62 µM (inactive); with T47D it was 91.4 µM (inactive); in the experiment on MDA-MB-231, 4.99 µM (inactive); with IGROV-1, 14.8 µM (inactive); with UACC-257 it was 4.66 µM (inactive); in the experiment on A549, 4.72 µM (inactive). For the same compound, the GI50 was 2.48 µM (inactive) with OVCAR-4 and 45.4 µM (inactive) with OVCAR-5.
